These results are taken from patent publication US9315503B2, “Kinase inhibitors” (CHIESI FARMACEUTICI S.p.A., priority 2011, dated 2016).

The target in one test is T1, p38alpha (Homo sapiens, UniProt Q16539).
T1 construct: purchased Invitrogen PV3304
As to the kind of experiment: P38Alpha enzyme inhibition assay (Alphascreen kinase activity assay). It is filed as biochemical. To be noted: 100 pM p38alpha, 250 μM ATP, 2 hours pre-incubation at 25° C., read-out: p38α inhibition (IC50 values). The gist of the method: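 AlphaScreen read-out: after an EDTA stop, an anti-phospho-ATF2 antibody with Protein A acceptor and donor beads measured substrate phosphorylation. Compounds sat 2 h at 25°C with 100 pM p38α and 0.3 µg/ml ATF-2 fusion protein (pH 7.5, 1% DMSO) before 250 µM ATP was added for 1 h. IC50 from dose-response.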

The test system of test [1] is LPS-stimulated TNFα release from PBMCs. As to the kind of experiment: LPS-stimulated PBMC TNFα release assay. The note with it: inhibition of TNFα release, human PBMCs, LPS 10 ng/ml, 18 h, ELISA, read-out: p38α inhibition (IC50 values). The class given is cell-based. In short, it runs like this:
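TNFα in supernatants measured by ELISA after 18 h LPS (10 ng/ml) challenge of human PBMCs given 1 h compound pretreatment at 37 °C in medium with 1% FBS. Percent inhibition versus control release fitted to dose-response curves for IC50; at least three independent runs.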

Structures can show the parent of a compound that is named as a salt.

T1 sequence (Q16539 whole entry): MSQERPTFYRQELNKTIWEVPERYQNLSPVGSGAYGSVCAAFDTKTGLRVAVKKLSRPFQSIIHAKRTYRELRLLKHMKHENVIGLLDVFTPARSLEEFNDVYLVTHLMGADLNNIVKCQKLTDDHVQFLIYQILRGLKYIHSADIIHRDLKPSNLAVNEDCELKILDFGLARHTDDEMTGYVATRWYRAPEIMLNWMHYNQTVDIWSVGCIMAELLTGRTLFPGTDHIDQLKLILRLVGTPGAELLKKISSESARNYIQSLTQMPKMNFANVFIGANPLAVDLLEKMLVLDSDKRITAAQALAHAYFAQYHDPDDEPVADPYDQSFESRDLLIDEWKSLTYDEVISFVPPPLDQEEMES

For the compound `COc1c(NC(=O)N[C@H]2CC[C@@H](Oc3ccc4nnc(N5CCCCC5)n4c3)c3ccccc32)cc(C(C)(C)C)cc1NS(C)(=O)=O` [Example 104, N-(5-tert-Butyl-2-methoxy-3-{3-[(1S,4R)-4-(3-piperidin-1-yl-[1,2,4]triazolo[4,3-a]pyridin-6-yloxy)-1,2,3,4-tetrahydro-naphthalen-1-yl]-ureido}-phenyl)-methanesulfonamide], the half-inhibitory concentration (IC50) (at p38alpha; in test [1]) was less than 10 nM each time.
With `Cc1ccc(-n2nc(C(C)(C)C)cc2NC(=O)N[C@H]2CC[C@@H](Oc3cc(C)c4nnc([C@@H]5CCCN5C)n4c3)c3ccccc32)cc1` [Example 105, 1-(5-tert-Butyl-2-p-tolyl-2H-pyrazol-3-yl)-3-{(1S,4R)-4-[8-methyl-3-((S)-1-methyl-pyrrolidin-2-yl)-[1,2,4]triazolo[4,3-a]pyridin-6-yloxy]-1,2,3,4-tetrahydro-naphthalen-1-yl}-urea], the IC50 (on p38alpha; in test [1]) was less than 10 nM throughout.
As to `CN1CCN(Cc2ccc(-n3nc(C(C)(C)C)cc3NC(=O)N[C@H]3CC[C@@H](Oc4ccc5nnc(N6CCCCC6)n5c4)c4ccccc43)cc2)CC1` [Example 106, 1-{5-tert-Butyl-2-[4-(4-methyl-piperazin-1-ylmethyl)-phenyl]-2H-pyrazol-3-yl}-3-[(1S,4R)-4-(3-piperidin-1-yl-[1,2,4]triazolo[4,3-a]pyridin-6-yloxy)-1,2,3,4-tetrahydro-naphthalen-1-yl]-urea], the IC50 (on p38alpha; in test [1]) was less than 10 nM each time.
Turning to `Cn1cc(-n2nc(C(C)(C)C)cc2NC(=O)N[C@H]2CC[C@@H](Oc3ccc4nnc(N5CCCCC5)n4c3)c3ccccc32)cn1` [Example 107, 1-(3-tert-Butyl-1′-methyl-1′H-[1,4′]bipyrazolyl-5-yl)-3-[(1S,4R)-4-(3-piperidin-1-yl-[1,2,4]triazolo[4,3-a]pyridin-6-yloxy)-1,2,3,4-tetrahydro-naphthalen-1-yl]-urea], the IC50 (on p38alpha; in test [1]) was less than 10 nM in each case.
Regarding `CN(C)CCn1cc(-n2nc(C(C)(C)C)cc2NC(=O)N[C@H]2CC[C@@H](Oc3ccc4nnc(N5CCCCC5)n4c3)c3ccccc32)cn1` [Example 108, 1-[3-tert-Butyl-1′-(2-dimethylamino-ethyl)-1′H-[1,4′]bipyrazolyl-5-yl]-3-[(1S,4R)-4-(3-piperidin-1-yl-[1,2,4]triazolo[4,3-a]pyridin-6-yloxy)-1,2,3,4-tetrahydro-naphthalen-1-yl]-urea], the IC50 (at p38alpha; in test [1]) was less than 10 nM throughout.
`COc1c(NC(=O)N[C@H]2CC[C@@H](Oc3ccc4nnc([C@@H]5CCCN5C)n4c3)c3ccccc32)cc(C(C)(C)C)cc1NS(C)(=O)=O` [Example 109, N-[5-tert-Butyl-2-methoxy-3-(3-{(1S,4R)-4-[3-((S)-1-methyl-pyrrolidin-2-yl)-[1,2,4]triazolo[4,3-a]pyridin-6-yloxy]-1,2,3,4-tetrahydro-naphthalen-1-yl}-ureido)-phenyl]-methanesulfonamide formate salt]: the IC50 (at p38alpha; in test [1]) was less than 10 nM throughout.
In the case of `C[C@H]1CCCCN1c1nnc2ccc(O[C@@H]3CC[C@H](NC(=O)Nc4cc(C(C)(C)C)nn4CCO)c4ccccc43)cn12` [Example 110, 1-[5-tert-Butyl-2-(2-hydroxy-ethyl)-2H-pyrazol-3-yl]-3-{(1S,4R)-4-[3-((S)-2-methyl-piperidin-1-yl)-[1,2,4]triazolo[4,3-a]pyridin-6-yloxy]-1,2,3,4-tetrahydro-naphthalen-1-yl}-urea], the IC50 (on p38alpha; in test [1]) was less than 10 nM throughout.
As for `C[C@H]1CCCCN1c1nnc2ccc(O[C@@H]3CC[C@H](NC(=O)Nc4cc(C(C)(C)C)on4)c4ccccc43)cn12` [Example 111, 1-(5-tert-Butyl-isoxazol-3-yl)-3-{(1S,4R)-4-[3-((S)-2-methyl-piperidin-1-yl)-[1,2,4]triazolo[4,3-a]pyridin-6-yloxy]-1,2,3,4-tetrahydro-naphthalen-1-yl}-urea], the IC50 (at p38alpha; in test [1]) was less than 10 nM each time.
As for `CC(C)(C)c1cc(NC(=O)N[C@H]2CC[C@@H](Oc3ccc4nnc(N5CCCCC5)n4c3)c3ccccc32)n(-c2cnn(CCN3CCOCC3)c2)n1` [Example 112, 1-[3-tert-Butyl-1′-(2-morpholin-4-yl-ethyl)-1′H-[1,4′]bipyrazolyl-5-yl]-3-[(1S,4R)-4-(3-piperidin-1-yl-[1,2,4]triazolo[4,3-a]pyridin-6-yloxy)-1,2,3,4-tetrahydro-naphthalen-1-yl]-urea formate salt], the IC50 (on p38alpha; in test [1]) was less than 10 nM in each case.
Consider `CN(C)CCCn1cc(-n2nc(C(C)(C)C)cc2NC(=O)N[C@H]2CC[C@@H](Oc3ccc4nnc(N5CCCCC5)n4c3)c3ccccc32)cn1` [Example 113, 1-[3-tert-Butyl-1′-(3-dimethylamino-propyl)-1′H-[1,4′]bipyrazolyl-5-yl]-3-[(1S,4R)-4-(3-piperidin-1-yl-[1,2,4]triazolo[4,3-a]pyridin-6-yloxy)-1,2,3,4-tetrahydro-naphthalen-1-yl]-urea formate salt], for which the IC50 (on p38alpha; in test [1]) was less than 10 nM throughout.
For `CC(C)(C)c1cc(NC(=O)N[C@H]2CC[C@@H](Oc3ccc4nnc(N5CCCCC5)n4c3)c3ccccc32)n(-c2cnn(CCCN3CCOCC3)c2)n1` [Example 114, 1-[3-tert-Butyl-1′-(3-morpholin-4-yl-propyl)-1′H-[1,4′]bipyrazolyl-5-yl]-3-[(1S,4R)-4-(3-piperidin-1-yl-[1,2,4]triazolo[4,3-a]pyridin-6-yloxy)-1,2,3,4-tetrahydro-naphthalen-1-yl]-urea formate salt], the IC50 (at p38alpha; in test [1]) was less than 10 nM each time.
Turning to `C[C@@H]1CCC[C@H](C)N1c1nnc2ccc(O[C@@H]3CC[C@H](NC(=O)Nc4cc(F)cc(N5CCOCC5)c4)c4ccccc43)cn12` [Example 115, 1-{(1S,4R)-4-[3-((2S,6R)-2,6-Dimethyl-piperidin-1-yl)-[1,2,4]triazolo[4,3-a]pyridin-6-yloxy]-1,2,3,4-tetrahydro-naphthalen-1-yl}-3-(3-fluoro-5-morpholin-4-yl-phenyl)-urea], the IC50 (at p38alpha; in test [1]) was less than 10 nM throughout.
In the case of `C[C@H]1CCCCN1c1nnc2ccc(O[C@@H]3CC[C@H](NC(=O)Nc4cc(C(C)(C)C)nn4CCN4CCOCC4)c4ccccc43)cn12` [Example 116, 1-[5-tert-Butyl-2-(2-morpholin-4-yl-ethyl)-2H-pyrazol-3-yl]-3-{(1S,4R)-4-[3-((S)-2-methyl-piperidin-1-yl)-[1,2,4]triazolo[4,3-a]pyridin-6-yloxy]-1,2,3,4-tetrahydro-naphthalen-1-yl}-urea], the half-inhibitory concentration (IC50) (at p38alpha; in test [1]) was less than 10 nM in each case.
Regarding `C[C@@H]1CCC[C@H](C)N1c1nnc2ccc(O[C@@H]3CC[C@H](NC(=O)Nc4cc(C(C)(C)C)nn4CCO)c4ccccc43)cn12` [Example 118, 1-[5-tert-Butyl-2-(2-hydroxy-ethyl)-2H-pyrazol-3-yl]-3-{(1S,4R)-4-[3-((2S,6R)-2,6-dimethyl-piperidin-1-yl)-[1,2,4]triazolo[4,3-a]pyridin-6-yloxy]-1,2,3,4-tetrahydro-naphthalen-1-yl}-urea], the IC50 (on p38alpha; in test [1]) was less than 10 nM in each case.
For the compound `CN(C)CCn1cnc(-n2nc(C(C)(C)C)cc2NC(=O)N[C@H]2CC[C@@H](Oc3ccc4nnc(N5CCCCC5)n4c3)c3ccccc32)c1` [Example 119, 1-{5-tert-Butyl-2-[1-(2-dimethylamino-ethyl)-1H-imidazol-4-yl]-2H-pyrazol-3-yl}-3-[(1S,4R)-4-(3-piperidin-1-yl-[1,2,4]triazolo[4,3-a]pyridin-6-yloxy)-1,2,3,4-tetrahydro-naphthalen-1-yl]-urea], the IC50 on p38alpha was less than 10 nM; in test [1] it was 10 to 100 nM.
The corresponding values for `CN1CCCC[C@H]1c1nnc2ccc(O[C@@H]3CC[C@H](NC(=O)Nc4cc(C(C)(C)C)nn4CCO)c4ccccc43)cn12` [Example 120, 1-[5-tert-Butyl-2-(2-hydroxy-ethyl)-2H-pyrazol-3-yl]-3-{(1S,4R)-4-[3-((S)-1-methyl-piperidin-2-yl)-[1,2,4]triazolo[4,3-a]pyridin-6-yloxy]-1,2,3,4-tetrahydro-naphthalen-1-yl}-urea] are less than 10 nM and less than 10 nM.
Regarding `C[C@@H]1CCC[C@H](C)N1c1nnc2ccc(O[C@@H]3CC[C@H](NC(=O)Nc4cc(C(C)(C)C)nn4CCN4CCOCC4)c4ccccc43)cn12` [Example 121, 1-[5-tert-Butyl-2-(2-morpholin-4-yl-ethyl)-2H-pyrazol-3-yl]-3-{(1S,4R)-4-[3-((2S,6R)-2,6-dimethyl-piperidin-1-yl)-[1,2,4]triazolo[4,3-a]pyridin-6-yloxy]-1,2,3,4-tetrahydro-naphthalen-1-yl}-urea], the IC50 (on p38alpha; in test [1]) was less than 10 nM in each case.
In the case of `CN(C)CCOc1cccc(-n2nc(C(C)(C)C)cc2NC(=O)N[C@H]2CC[C@@H](Oc3ccc4nnc(N5C6CCCC5CC6)n4c3)c3ccccc32)c1` [Example 122, 1-{(1S,4R)-4-[3-(8-Aza-bicyclo[3.2.1]oct-8-yl)-[1,2,4]triazolo[4,3-a]pyridin-6-yloxy]-1,2,3,4-tetrahydro-naphthalen-1-yl}-3-{5-tert-butyl-2-[3-(2-dimethylamino-ethoxy)-phenyl]-2H-pyrazol-3-yl}-urea formate salt], the IC50 (on p38alpha; in test [1]) was less than 10 nM throughout.
